According to paper PMC9465256, “Discovering monoacylglycerol lipase inhibitors by a combination of fluorogenic substrate assay and activity-based protein profiling” (Frontiers in Pharmacology, 2022):
“Also recorded” adds a separate entry of the source.

Tests used:
human MAGL = biological target: T1, human MAGL (Homo sapiens, UniProt Q99685); assay: MAGL activity assay (AA-HNA fluorogenic substrate); type: biochemical
T1 construct: expressed in transfected cells; host or cells: HEK293T (transient transfection; membrane fraction)
T1 sequence (Q99685 1-303): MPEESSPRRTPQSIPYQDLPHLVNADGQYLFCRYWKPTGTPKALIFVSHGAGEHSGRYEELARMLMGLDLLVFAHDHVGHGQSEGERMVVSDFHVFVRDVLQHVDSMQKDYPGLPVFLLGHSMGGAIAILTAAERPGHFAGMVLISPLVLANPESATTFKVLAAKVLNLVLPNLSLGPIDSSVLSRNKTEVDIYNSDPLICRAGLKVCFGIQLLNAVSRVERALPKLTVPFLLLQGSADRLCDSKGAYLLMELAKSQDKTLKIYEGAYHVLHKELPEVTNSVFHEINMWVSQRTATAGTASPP
Outline: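 Membranes from transiently transfected HEK293T cells overexpressing MAGL were preincubated with inhibitor for 30 min in 40 mM HEPES pH 7.5 with 0.1 mg/ml BSA. AA-HNA substrate was then added (10 µl of 200 µM stock), and fluorescence was read every minute for 30 min. Activity was taken from the slope between 5 and 15 min.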

[1] = system: serine hydrolases labeled by FP-TAMRA in mouse brain membrane proteome; assay: Competitive ABPP selectivity assay, mouse brain membrane proteome; type: biochemical; conditions: 100 µM, FP-TAMRA 250 nM
Description: Mouse brains were dounce homogenized lysis buffer (20 mM HEPES, 2 mM DTT, 1 mM MgCl2, 25 U/mL benzonase) and incubated on ice for 15 min, followed by low-speed spin (2,500 g, 3 min, 4 C) to remove debris. The supernatant was subjected to ultracentrifugation (100,000 g, 45 min, 4°C) to generate the cytosolic fraction in the supernatant, as well as the membrane fraction as a pellet. After removal of the soluble supernatant, the pellet was resuspended in storage buffer (20 mM HEPES, 2 mM DTT) by pipetting. Total protein concentrations in membrane and soluble fractions were determined using a Qubit protein assay (Invitrogen). The obtained samples were stored at −80°C until further use.
The competitive ABPP selectivity assay was performed according to the previously reported protocol. Briefly, mouse brain membrane proteome (2 mg/ml, 20 µl) was preincubated for 30 min with 0.5 µl of DMSO (vehicle) or inhibitor (100 μM, finial concentration). […] The reactions were then quenched by 10 µl sample buffer (×4). The obtained samples were directly loaded and resolved on SDS-PAGE gel (10% acrylamide). The gels were then scanned and analyzed using a ChemiDoc MP system (Cy3 settings, BioRad). All the samples were measured and duplicated.

human ABHD6 = biological target: T2, human ABHD6 (Homo sapiens, UniProt Q9BV23); assay: ABHD6 activity assay (AA-HNA fluorogenic substrate); type: biochemical
T2 construct: expressed in transfected cells; host or cells: HEK293T (transient transfection; membrane fraction)
T2 sequence (Q9BV23 1-337): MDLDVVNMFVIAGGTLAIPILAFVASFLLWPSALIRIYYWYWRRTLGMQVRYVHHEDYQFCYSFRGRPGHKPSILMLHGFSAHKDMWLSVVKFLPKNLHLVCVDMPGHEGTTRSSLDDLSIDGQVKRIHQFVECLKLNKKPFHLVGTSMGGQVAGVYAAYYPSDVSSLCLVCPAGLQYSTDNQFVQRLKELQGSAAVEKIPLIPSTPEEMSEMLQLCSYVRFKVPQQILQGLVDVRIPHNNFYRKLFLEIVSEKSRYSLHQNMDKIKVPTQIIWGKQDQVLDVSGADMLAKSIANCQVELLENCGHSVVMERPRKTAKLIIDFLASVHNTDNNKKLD
Outline: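 Membranes from HEK293T cells transiently overexpressing human ABHD6 (50 μg/ml final) were preincubated 30 min with inhibitor in 40 mM HEPES pH 7.5, 0.1 mg/ml BSA, 5% DMSO. Hydrolysis of 200 µM AA-HNA was followed by fluorescence for 30 min, activity taken as the 5–15 min slope.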

human ABHD12 = biological target: T3, human ABHD12 (Homo sapiens, UniProt Q8N2K0); assay: ABHD12 activity by competitive ABPP with FP-TAMRA; type: biochemical; conditions: 100 µM compound; competitive ABPP with probe FP-TAMRA (250 nM); read-out: ABHD12 Inhibition (%)
T3 construct: expressed in transfected cells; host or cells: HEK293T (transient transfection; membrane fraction)
T3 sequence (Q8N2K0 1-398): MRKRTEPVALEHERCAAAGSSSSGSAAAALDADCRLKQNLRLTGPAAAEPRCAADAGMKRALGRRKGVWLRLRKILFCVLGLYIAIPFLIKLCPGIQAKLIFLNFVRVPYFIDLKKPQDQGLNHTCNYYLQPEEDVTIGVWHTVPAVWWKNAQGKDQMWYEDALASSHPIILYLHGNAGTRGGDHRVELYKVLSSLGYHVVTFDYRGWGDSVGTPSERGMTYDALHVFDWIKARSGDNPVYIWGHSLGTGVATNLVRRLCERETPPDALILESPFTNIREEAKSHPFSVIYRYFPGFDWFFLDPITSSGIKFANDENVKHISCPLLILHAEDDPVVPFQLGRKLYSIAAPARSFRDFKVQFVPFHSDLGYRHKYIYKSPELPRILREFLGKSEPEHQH
Outline: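 Membrane fractions of HEK293T cells transiently overexpressing human ABHD12 (1 mg/ml) preincubated with inhibitor or DMSO for 30 min at room temperature, then labelled with FP-TAMRA (250 nM final) for 20 min. Quenched samples resolved by SDS-PAGE and read by in-gel fluorescence scanning (Cy3 settings).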

ABHD6 in cancer cells = assay: Competitive ABPP in cancer cell lysates: ABHD6 band; type: biochemical; conditions: 10 μM preincubation, A431 and B16-F10 cells
Description: (§1) To identify the potential off-targets of the compounds with anti-cancer activities, ABPP was applied. Cancer cells were seeded in the dishes and were washed with PBS, scraped, centrifugated (3,000 × g, 3 min) and pellets snap frozen in liquid in nitrogen. For ABPP experiments, the cell pellets were lysed by probe sonication (3 × 10 bursts) in PBS, followed by the determination of protein concentration of the intact cell lysate by Qubit assay. […] The reactions were then quenched by 10 µl sample buffer (×4). The obtained samples were directly loaded and resolved on SDS-PAGE gel (10% acrylamide). The gel-based ABPP results were then scanned and analyzed using a ChemiDoc MP system (Cy3 settings, BioRad).

Hela cells = assay: Cell viability assay (CCK-8), Hela; type: cell-based; conditions: 48 h
Description: (§2) Various cancer cell lines, including human colon cancer cell line HT-29, ovarian cell line OVCAR-3, melanoma cell line B16-F10, skin squamous cancer cells A431, cervical cancer cells Hela, lung cancer cell lines A549, H1975, and HCC827, were purchased from American type culture collection (ATCC). A431, H1975, B16-F10, OVCAR-3, HT-29, HCC827, Hela, and A549 cells were cultured in Dulbecco’s modified Eagle medium (DMEM, Gibco) containing 10% fetal bovine serum (FBS, Gibco), penicillin (100 U/ml) and streptomycin (100 μg/ml). All cell lines were maintained in a humidified 37°C incubator with 5% CO2. The medium was refreshed every 2–3 days and the cells were passaged at ∼90% confluence by adding the fresh medium, followed by vigorously pipetting the resuspend cells. Of note, the cells were only washed with PBS when a significant number of dead cells were observed.
(§3) The antiproliferation activity of the compounds against the cancer cell lines was evaluated using Cell Counting Kit-8. Briefly, cells (∼1,000 per well) in 100 µl of culture medium were plated in a 96-well plate for 24 h and 100 µl of medium with different concentrations of the tested compounds was added to each well for 48 h. Then 10 μl of CCK8 solution (#CK04, Dojindo) was added and incubated at 37°C for 2 h. The absorbance of each well was measured with a plate reader (BioTeck) at 450 nm. Cell viability was calculated as follows: cell viability (%) = [(As-Ab)/(Ac-Ab)] × 100. Among them, As represents the absorbance of experimental wells, Ab represents the absorbance of blank wells and Ac represents the absorbance of control wells. The experiments were repeated at least three times and IC50 values were determined by plotting a log(inhibitor) v. s normalized response (Variable slope) dose–response curve generated using GraphPad Prism software.

A549 cells = assay: Cell viability assay (CCK-8), A549; type: cell-based; conditions: A549, 48 h
Description: as §2, §3

H1975 cells = assay: Cell viability assay (CCK-8), H1975; type: cell-based; conditions: H1975, 48 h
Description: as §2, §3

[2] = system: endogenous MAGL in cancer cells; assay: Competitive ABPP in cancer cell lysates: MAGL band; type: biochemical; conditions: 10 μM preincubation, cancer cell lysates
Description: as §1

HT-29 cells = assay: Cell viability assay (CCK-8), HT-29; type: cell-based, human; conditions: HT-29, 48 h
Description: as §2, §3

A431 cells = assay: Cell viability assay (CCK-8), A431; type: cell-based; conditions: A431, 48 h, CCK-8
Description: as §2, §3

B16-F10 cells = assay: Cell viability assay (CCK-8), B16-F10; type: cell-based; conditions: B16-F10, 48 h, CCK-8
Description: as §2, §3

HCC827 cells = assay: Cell viability assay (CCK-8), HCC827; type: cell-based; conditions: HCC827, 48 h
Description: as §2, §3

OVCAR-3 cells = assay: Cell viability assay (CCK-8), OVCAR-3; type: cell-based; conditions: OVCAR-3, 48 h
Description: as §2, §3

[3] = 100 µM, AA-HNA substrate assay, Supplementary Table 1, read-out: MAGL Inhibition (%)
[4] = 100 µM, AA-HNA substrate assay, Supplementary Table 2, read-out: ABHD6 Inhibition (%)

Cc1cc2c(C(C)C)c(O)c(O)c(C=O)c2c(O)c1-c1c(C)cc2c(C(C)C)c(O)c(O)c(C=O)c2c1O [compound 34, Gossypol Acetate]
activity at 100 µM (human MAGL; [3]): 35.2% | selectivity profile over serine hydrolases [1]: broad-spectrum inhibitors that cross-reacted with multiple serine hydrolases | activity at 100 µM (human ABHD6; [4]): 26.3% | activity at 100 µM (human ABHD12): 43.7%

O=C(N1CCCCC1c1ccccc1)n1cc(-c2ccc(-c3cccc(CO)c3)cc2)nn1 (stereo not shown) [KT182, reference compound]
labeling of ABHD6 (∼32 kDa) (ABHD6 in cancer cells): disappeared | effect on fluorescent signal of AA-HNA hydrolysis by ABHD6 (human ABHD6; 10 µM): reduction of the fluorescent signal

O=C(CCc1ccc(O)cc1)c1c(O)cc(O)cc1O [compound 66, Dihydronaringenin]
activity (human MAGL; [3]): 41.3% | selectivity profile over serine hydrolases [1]: broad-spectrum inhibitors that cross-reacted with multiple serine hydrolases | activity (human ABHD6; [4]): 115% | activity (human ABHD12): 119%

O=c1c(O)c(-c2ccc(O)c(O)c2)oc2cc(O)cc(O)c12 [compound 70, Quercetin]
activity at 100 µM (human MAGL; [3]): 42% | selectivity profile over serine hydrolases [1]: broad-spectrum inhibitors that cross-reacted with multiple serine hydrolases | activity at 100 µM (human ABHD6; [4]): 48.6% | activity at 100 µM (human ABHD12): 75.1%

O=C(OC(C(F)(F)F)C(F)(F)F)N1CCC(C(O)(c2ccc3c(c2)OCO3)c2ccc3c(c2)OCO3)CC1 [KML29, reference compound]
Antiproliferation activity (pIC50 ± SEM) Hela (Hela cells): <5 | IC50 (human MAGL; 30 min preincubation, dose-response curve, read-out: IC50 (MAGL, AA-HNA assay)): 87 nM | effect on fluorescent signal of AA-HNA hydrolysis by MAGL (human MAGL; preincubation with 1 µM): significantly reduced the fluorescent signal to the background level; also recorded: reduction of the fluorescent signal | Antiproliferation activity (pIC50 ± SEM) A549 (A549 cells): <5 | Antiproliferation activity (pIC50 ± SEM) H1975 (H1975 cells): <5 | fluorescent band of MAGL (∼33 kDa) in ABPP gels [2]: competed away | Antiproliferation activity (pIC50 ± SEM) HT-29 (HT-29 cells): 5.0 ± 0.3 | Antiproliferation activity (pIC50 ± SEM) A431 (A431 cells): <5 | Antiproliferation activity (pIC50 ± SEM) B16-F10 (B16-F10 cells): 5.0 ± 0.2 | Antiproliferation activity (pIC50 ± SEM) HCC827 (HCC827 cells): <5 | Antiproliferation activity (pIC50 ± SEM) OVCAR-3 (OVCAR-3 cells): <5
